Experimental data published in article PMC10247784, “Physiological activation of human and mouse bitter taste receptors by bile acids” (Communications Biology, 2023).

Target: T1, mouse Tas2r105 (Mus musculus, UniProt Q9JKT4)
T1 construct: expressed in transfected cells; host or cells: HEK293T-Gα16gust44
T1 sequence (Q9JKT4 1-300): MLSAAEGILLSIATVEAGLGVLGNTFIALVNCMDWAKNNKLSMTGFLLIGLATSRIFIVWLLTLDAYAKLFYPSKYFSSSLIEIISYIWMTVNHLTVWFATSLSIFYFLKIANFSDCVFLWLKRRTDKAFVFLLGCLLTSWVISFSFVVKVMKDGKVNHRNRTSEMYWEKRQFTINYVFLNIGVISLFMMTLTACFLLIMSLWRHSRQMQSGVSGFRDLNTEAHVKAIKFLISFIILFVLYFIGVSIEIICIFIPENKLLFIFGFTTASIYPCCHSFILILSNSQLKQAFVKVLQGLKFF
Test: Calcium imaging assay (FLIPR), HEK293T-Gα16gust44 cells transfected with mouse Tas2r105
Format: cell-based
Method: This set of bile acids was chosen because of their commercial availability in high purities, their diversity within the class of bile acids and their previous detection and quantitation in human blood. Stock solutions were prepared in DMSO.
As basal growth medium for the HEK293T-Gα16gust44 cell line[17],[59] served Dulbecco’s modified eagle medium (DMEM) (Thermo Fisher Scientific, Darmstadt, Germany) supplemented with 10 % fetal bovine serum (Sigma-Aldrich, Steinheim, Germany), 2 mM L-glutamine (Sigma-Aldrich, Steinheim, Germany), 100 units/ml penicillin (Sigma Aldrich, Steinheim, Germany) and 100 µg/ml streptomycin (Sigma Aldrich, Steinheim, Germany). Growth conditions were 37 °C, 5 % CO2 and saturated air-humidity[60].
HEK293T-Gα16gust44 cells were seeded on poly-D-lysine (10 µg/ml) coated 96-well plates to reach a confluence of 40-60 % the next day. For transient transfection 150 ng of plasmid DNA containing the receptor of interest and 0.3 µl lipofectamine 2000 (Thermo Fisher Scientific, Darmstadt, Germany) per well were used and transfection took place according to the manual of lipofectamine 2000. […] The empty vector DNA (mock) was transfected as negative control[14],[41].
Cells were loaded using the calcium-sensitive fluorescent dye Fluo-4-AM (Abcam, Cambridge, Great Britain) in the presence of 2.5 mM probenecid (Sigma-Aldrich, Steinheim, Germany) the day after transfection[13],[41]. 1 h after loading, cells were washed with C1 buffer using a BioTek Cell Washer, incubated in the dark for half an hour and washed again. For automated agonist application and measurement of fluorescence changes, a FLIPR^TETRA device (Molecular Devices, San José, United States) was used. Viability of cells was tested by application of 100 nM Somatostatin 14 (Bachem, Bubendorf, Switzerland)[42].
Measured data were negative control corrected by subtracting the signal of the mock-transfected cells and exported to Microsoft Excel using the FLIPR software ScreenWorks 4.2. In Microsoft Excel software, standardization of maximum fluorescence intensities to the basal fluorescence and normalization to the buffer-only control was done to calculate the relative fluorescence changes (ΔF/F).
Initial screening experiments performed in duplicate wells were confirmed by at least one replication and representative traces were selected for display. All dose-response relationships were determined by three independent experiments (biological replicates) performed in duplicates (technical replicates). Threshold concentrations, defined as lowest substance concentrations leading to statistically significant elevated fluorescence changes in receptor-transfected cells compared with empty vector-transfected cells, were determined using SigmaPlot with Student’s t-test to evaluate statistical significance (p < 0.01).

C[C@H](CCC(=O)O)[C@H]1CC[C@H]2[C@@H]3[C@H](O)C[C@@H]4C[C@H](O)CC[C@]4(C)[C@H]3C[C@H](O)[C@]12C [Cholic Acid, cholic acid]
RLU (Time 0 s): 0 RLU
RLU (Time 2 s): 1.777 RLU
RLU (Time 4 s): 7.834 RLU
RLU (Time 6 s): 2.675 RLU
RLU (Time 8 s): 9.829 RLU
RLU (Time 12 s): -3.285 RLU
RLU (Time 14 s): -7.0734 RLU
RLU (Time 16 s): 15 RLU
RLU (Time 18 s): 44.4226 RLU
RLU (Time 18.781 s): 21.6772 RLU
RLU (Time 20.781 s): 9.429 RLU
RLU (Time 22.781 s): 39.5966 RLU
RLU (Time 24.781 s): 10.8272 RLU
RLU (Time 26.781 s): 50.2337 RLU
RLU (Time 28.781 s): 59.2009 RLU
RLU (Time 30.781 s): 49.6279 RLU
RLU (Time 32.781 s): 86.2126 RLU
RLU (Time 34.781 s): 65.8416 RLU
RLU (Time 36.781 s): 100.025 RLU
RLU (Time 38.781 s): 89.1237 RLU
RLU (Time 40.781 s): 115.541 RLU
RLU (Time 42.781 s): 131.095 RLU
RLU (Time 44.781 s): 139.548 RLU
RLU (Time 46.781 s): 164.231 RLU
RLU (Time 48.781 s): 193.51 RLU
RLU (Time 50.781 s): 193.303 RLU
RLU (Time 52.781 s): 217.91 RLU
RLU (Time 54.781 s): 257.63 RLU
RLU (Time 56.781 s): 273.677 RLU
RLU (Time 58.781 s): 284.724 RLU
RLU (Time 60.781 s): 322.244 RLU
RLU (Time 62.781 s): 314.427 RLU
RLU (Time 64.781 s): 342.91 RLU
RLU (Time 66.781 s): 375.793 RLU
RLU (Time 68.781 s): 398.01 RLU
RLU (Time 70.781 s): 424.457 RLU
RLU (Time 72.781 s): 449.971 RLU
RLU (Time 74.781 s): 470.44 RLU
RLU (Time 76.781 s): 487.87 RLU
RLU (Time 78.781 s): 480.774 RLU
RLU (Time 80.781 s): 513.812 RLU
RLU (Time 82.781 s): 513.576 RLU
RLU (Time 84.781 s): 531.991 RLU
RLU (Time 86.781 s): 549.947 RLU
RLU (Time 88.781 s): 553.294 RLU
RLU (Time 90.781 s): 575.612 RLU
RLU (Time 92.781 s): 557.955 RLU
RLU (Time 94.781 s): 575.485 RLU
RLU (Time 96.781 s): 548.118 RLU
RLU (Time 98.781 s): 585.897 RLU
RLU (Time 100.781 s): 576.152 RLU
RLU (Time 102.781 s): 586.681 RLU
RLU (Time 104.781 s): 569.701 RLU
RLU (Time 106.781 s): 551.409 RLU
RLU (Time 108.781 s): 564.279 RLU
RLU (Time 110.781 s): 542.028 RLU
RLU (Time 112.781 s): 544.652 RLU
RLU (Time 114.781 s): 548.979 RLU
RLU (Time 116.781 s): 550.607 RLU
RLU (Time 118.781 s): 555.391 RLU
RLU (Time 120.781 s): 575.811 RLU
RLU (Time 122.781 s): 538.707 RLU
RLU (Time 124.781 s): 581.753 RLU
RLU (Time 126.781 s): 520.313 RLU
RLU (Time 128.781 s): 519.484 RLU
RLU (Time 130.781 s): 535.938 RLU
RLU (Time 132.781 s): 507.19 RLU
RLU (Time 134.781 s): 533.269 RLU
RLU (Time 136.781 s): 500.116 RLU
RLU (Time 137.578 s): 523.788 RLU
RLU (Time 143.578 s): 484.404 RLU
RLU (Time 149.578 s): 476.256 RLU
RLU (Time 155.578 s): 501.067 RLU
RLU (Time 161.578 s): 504.009 RLU
RLU (Time 167.578 s): 489.395 RLU
RLU (Time 173.578 s): 450.925 RLU
RLU (Time 179.578 s): 464.442 RLU
RLU (Time 185.578 s): 417.045 RLU
RLU (Time 191.578 s): 421.394 RLU
RLU (Time 197.578 s): 391.24 RLU
RLU (Time 203.578 s): 344.694 RLU
RLU (Time 209.578 s): 358.293 RLU
RLU (Time 215.578 s): 343.137 RLU
RLU (Time 221.578 s): 329.589 RLU
RLU (Time 227.578 s): 339.83 RLU
RLU (Time 233.578 s): 325.692 RLU
RLU (Time 239.578 s): 315.743 RLU
RLU (Time 245.578 s): 313.71 RLU
RLU (Time 293.578 s): 197.324 RLU
RLU (Time 299.578 s): 152.865 RLU
RLU (Time 305.578 s): 156.643 RLU
RLU (Time 311.578 s): 134.046 RLU
RLU (Time 317.578 s): 124.601 RLU
RLU (Time 323.578 s): 131.88 RLU
RLU (Time 329.578 s): 133.734 RLU
RLU (Time 335.578 s): 174.038 RLU
RLU (Time 341.578 s): 165.309 RLU
RLU (Time 347.578 s): 173.556 RLU
RLU (Time 353.578 s): 191.675 RLU
RLU (Time 359.578 s): 226.638 RLU
Activation threshold concentration Tas2r105 (p < 0.01 vs empty vector): 300 µM

C[C@H](CCC(=O)NCCS(=O)(=O)O)[C@H]1CC[C@H]2[C@@H]3[C@H](O)C[C@@H]4C[C@H](O)CC[C@]4(C)[C@H]3C[C@H](O)[C@]12C [Taurocholic Acid, taurocholic acid]
Receptor response Tas2r105 (screening): lack of taurocholic acid responsiveness
